According to patent US20240345054A1, “Method of Screening Antioxidants” (Johnson & Johnson Consumer Inc., priority 2021, published 2024):

Legend:
[1] = UVA-induced squalene oxidation in vitro model, MDA formed measured by fluorometric TBARS assay; assay type: biochemical; settings: 20 J/cm^2 UVA; for Efficacy (percentage difference in MDA generation compared to the untreated, UV-stimulated control sample): 0.12 nM protoporphyrin IX, negative = reduction
Procedure: The antioxidant test model described above was used to test efficacy of various antioxidants in reducing the oxidation of squalene in conditions reflecting approximately two (2) hours of intense sun exposure. The target Oxidizable Component was squalene, in an amount of 30 μL (9.7% w/w) per sample. The solvents selected were dimethyl sulfoxide, propylene glycol (PG), and 1-butanol, in amounts of 8.3% (v/v), 8.3% (v/v), and 83.5% (v/v) per sample, respectively. The tests further included a biological metabolite, specifically protoporphyrin IX, in an amount of 0.12 nM per sample. The exposure to UVA radiation, using a solar simulator (NewportR), Oriel Instruments U.S.A., model 91293-1000), was 20 J/cm^2, as measured by a calibrated UVA detector probe (Solar Light Company, Inc., model PMA2110-UVS) connected to a calibrated simulator controller (Solar Light Company, Inc., model DCS-2).
To prepare the antioxidant test solutions, the antioxidants were first dissolved (via vortexing and gentle heating if necessary) in a volume of dimethyl sulfoxide (DMSO) that achieved a target concentration for the predetermined use level as outlined in Table 1.
The antioxidant test solutions were then diluted by 50% with propylene glycol (PG). […] The bulk volume was vortexed immediately prior to pipetting 5 replicates of 300 μL samples into the wells of a 24-well plate. The plates were then exposed to the UVA radiation until the target UVA dose was achieved (20 J/cm^2), after which the plate was removed and the amount of MDA formed by lipid peroxidation was analyzed. Care was taken during the experiment to protect the samples from extraneous light oxidation throughout the solution preparation, sample plating, and after the UVA exposure prior to MDA quantitation.
The determination of the amount of MDA formed was performed by fluorometric analysis using a commercial TBARS assay kit (Sigma Aldrich, catalogue #MAK085) that reacts thiobarbituric acid with the MDA present in the sample to form a fluorometric product (λex=532/λem=553 nm), which can be easily quantitated with a monochromator-based microplate reader (Tecan Infinite M1000 Pro) and the accompanying software (Tecan i-control). […] The magnitude of efficacy for each sample, expressed as percentage reduction from the untreated control, was averaged for each antioxidant treatment.
In Table 2 below, “X” means that there was no significant reduction (p<0.05) in the MDA formation as compared to the UV-stimulated control. The % of concentration of the active in the formula tested is identified as “% conc”.

[2] = 1% in oil-in-water emulsion, topical twice daily 2 mg/cm^2 for 7 days on the back, human subjects, 10 J/cm^2 UVA; significant (p<0.05); cited from earlier work
[3] = 0.05% conc of active in formula

With NC(=O)c1cccnc1 [Niacinamide] the “Efficacy (percentage difference in MDA generation compared to the untreated, UV-stimulated control sample)” value ([1]; 0.5% conc of active in formula) was 58%.
With O=C(O)CO [Glycolic acid] the “Efficacy (percentage difference in MDA generation compared to the untreated, UV-stimulated control sample)” value ([1]; 3% conc of active in formula) was −25%.
With COc1cc(/C=C/C(=O)O)ccc1O [Ferulic acid] the “Efficacy (percentage difference in MDA generation compared to the untreated, UV-stimulated control sample)” value ([1]; 0.01% conc of active in formula) was −47%, the “Efficacy (percentage difference in MDA generation compared to the untreated, UV-stimulated control sample)” value [1, 3] was −41% and the “Efficacy (percentage difference in MDA generation compared to the untreated, UV-stimulated control sample)” value ([1]; 0.1% conc of active in formula) was −39%.
In the case of Cc1c(C)c2c(c(C)c1O)CC[C@@](C)(CCC[C@H](C)CCC[C@H](C)CCCC(C)C)O2 [Vitamin E (alpha-tocopherol), alpha-tocopherol], the “Efficacy (percentage difference in MDA generation compared to the untreated, UV-stimulated control sample)” value ([1]; 0.1% conc of active in formula) is reported as −61%, the “Efficacy (percentage difference in MDA generation compared to the untreated, UV-stimulated control sample)” value ([1]; 0.5% conc of active in formula) is reported as −78% and the “Efficacy (percentage difference in MDA generation compared to the untreated, UV-stimulated control sample)” value ([1]; 1% conc of active in formula) is reported as −81%.
In the case of O=c1cc(-c2ccc(O)cc2)oc2cc(O)cc(O)c12 [Apigenin], the “Efficacy (percentage difference in MDA generation compared to the untreated, UV-stimulated control sample)” value ([1]; 0.5% conc of active in formula) is reported as −35%.
In the case of O=C(O)/C=C/c1ccc(O)cc1 [p-coumeric acid], the “Efficacy (percentage difference in MDA generation compared to the untreated, UV-stimulated control sample)” value [1, 3] is reported as −48% and the “Efficacy (percentage difference in MDA generation compared to the untreated, UV-stimulated control sample)” value ([1]; 0.1% conc of active in formula) is reported as −55%.
In the case of CC(C)(CO)[C@H](O)C(=O)NCCCO [D-Panthenol (Provitamin B5), D-Panthenol], the “Efficacy (percentage difference in MDA generation compared to the untreated, UV-stimulated control sample)” value ([1]; 0.25% conc of active in formula) is reported as −21% and the “Efficacy (percentage difference in MDA generation compared to the untreated, UV-stimulated control sample)” value ([1]; 0.5% conc of active in formula) is reported as −18%.
In the case of O=C1O[C@H]([C@@H](O)CO)C([O-])=C1OP(=O)([O-])[O-].[Na+].[Na+].[Na+] [sodium ascorbyl phosphate], the “Efficacy (percentage difference in MDA generation compared to the untreated, UV-stimulated control sample)” value ([1]; 1% conc of active in formula) is given as −41%, the “reduction of UV-induced squalene oxidation as compared to the control sample” value ([1]; 1%, in vitro model) is given as 41% and the “reduction of UVA-induced squalene oxidation compared to a placebo formulation” value [2] is given as 30%.
With O=C(O)C(O)c1ccccc1 (centres unmarked) [Mandelic acid] the “Efficacy (percentage difference in MDA generation compared to the untreated, UV-stimulated control sample)” value ([1]; 2% conc of active in formula) was 81% and the “Efficacy (percentage difference in MDA generation compared to the untreated, UV-stimulated control sample)” value ([1]; 3% conc of active in formula) was 69%.
For Cc1cc(C(C)(C)C)c(O)c(C(C)(C)C)c1 [Butylated hydroxytoluene (BHT), Butylated hydroxytoluene], the “Efficacy (percentage difference in MDA generation compared to the untreated, UV-stimulated control sample)” value ([1]; 0.035% conc of active in formula) was −54%.
For CC(=O)Oc1c(C)c(C)c2c(c1C)CCC(C)(CCC[C@H](C)CCC[C@H](C)CCCC(C)C)O2 (some centres unmarked) [Vitamin E acetate], the “Efficacy (percentage difference in MDA generation compared to the untreated, UV-stimulated control sample)” value ([1]; 0.1% conc of active in formula) was −36%.
